Data reported in ChEMBL document CHEMBL1148609, “Orally active purine-based inhibitors of the heat shock protein 90” (J Med Chem, 2006).

What follows are molecules tested against Heat shock protein HSP 90-alpha (Homo sapiens) (UniProt P07900) (assay: Hsp90 inhibition measured as HER-2 degradation in MCF-7 cells).

Structure (SMILES)	IC50
CCCCn1c(Cc2cc(OC)ccc2OC)nc2c(N)ncnc21	12000 nM
CCCCn1c(Cc2cc(OC)ccc2Cl)nc2c(N)ncnc21	20000 nM
CCCCn1c(Cc2cc(OC)ccc2I)nc2c(N)ncnc21	5000 nM
COc1ccc(I)c(Sc2nc3c(N)ncnc3n2CCCNC(C)C)c1	180 nM
CCCCn1c(Cc2cc(OC)ccc2Br)nc2c(N)ncnc21	8000 nM
CCC(CC)NCCCn1c(Sc2cc(OC)ccc2I)nc2c(N)ncnc21	210 nM
C#CCCCn1c(Sc2cc(OC)ccc2I)nc2c(N)nc(F)nc21	360 nM
COc1ccc(I)c(Sc2nc3c(N)ncnc3n2CCCNC(C)(C)C)c1	140 nM
CCC(C)NCCCn1c(Sc2cc(OC)ccc2I)nc2c(N)ncnc21 (stereo unspecified)	210 nM
CCCCn1c(Sc2cc(OC)ccc2OC)nc2c(N)ncnc21	3500 nM
COc1ccc(I)c(Sc2nc3c(N)ncnc3n2CCC=C(C)C)c1	370 nM
